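Compound exposure: 48 hours, 5 concentrations, 96-well plates. At the TGI there is no net growth.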
Experiments:
Assay in all cases: growth of human tumour cells (NCI), 48 h
MCF7 breast = system: MCF7 breast
SNB-75 CNS = system: SNB-75 CNS
SF-268 CNS = system: SF-268 CNS
SK-OV-3 ovarian = system: SK-OV-3 ovarian
SF-539 CNS = system: SF-539 CNS
MOLT-4 leukemia = system: MOLT-4 leukemia
T-47D breast = system: T-47D breast
CAKI-1 renal = system: CAKI-1 renal
A549 NSCLC = system: A549 NSCLC
NCI-H226 lung = system: NCI-H226 lung
KM12 colon = system: KM12 colon
NCI-H522 lung = system: NCI-H522 lung
TK-10 renal = system: TK-10 renal
MDA-MB-435 = system: MDA-MB-435
CCRF-CEM leukemia = system: CCRF-CEM leukemia
U251 CNS = system: U251 CNS
SN12C renal = system: SN12C renal
RXF 393 renal = system: RXF 393 renal
COLO 205 colon = system: COLO 205 colon
UACC-257 melanoma = system: UACC-257 melanoma
HOP-92 NSCLC = system: HOP-92 NSCLC
MDA-N = system: MDA-N
MALME-3M melanoma = system: MALME-3M melanoma
NCI-H23 lung = system: NCI-H23 lung
IGROV1 ovarian = system: IGROV1 ovarian
NCI/ADR-RES ovarian = system: NCI/ADR-RES ovarian
OVCAR-4 ovarian = system: OVCAR-4 ovarian
HCT-15 colon = system: HCT-15 colon
SNB-19 CNS = system: SNB-19 CNS
OVCAR-3 ovarian = system: OVCAR-3 ovarian
HL-60(TB) leukemia = system: HL-60(TB) leukemia
HCC-2998 colon = system: HCC-2998 colon
OVCAR-8 ovarian = system: OVCAR-8 ovarian
SF-295 CNS = system: SF-295 CNS
HT29 colon = system: HT29 colon
HS 578T breast = system: HS 578T breast
HCT-116 colon = system: HCT-116 colon
HOP-62 NSCLC = system: HOP-62 NSCLC
MDA-MB-231 breast = system: MDA-MB-231 breast
NCI-H460 lung = system: NCI-H460 lung
M14 melanoma = system: M14 melanoma
LOX IMVI melanoma = system: LOX IMVI melanoma
786-0 renal = system: 786-0 renal
ACHN renal = system: ACHN renal
OVCAR-5 ovarian = system: OVCAR-5 ovarian
RPMI-8226 leukemia = system: RPMI-8226 leukemia
A498 renal = system: A498 renal
DU-145 prostate = system: DU-145 prostate
K-562 leukemia = system: K-562 leukemia
BT-549 breast = system: BT-549 breast
PC-3 prostate = system: PC-3 prostate
EKVX NSCLC = system: EKVX NSCLC
UO-31 renal = system: UO-31 renal
UACC-62 melanoma = system: UACC-62 melanoma
SK-MEL-2 melanoma = system: SK-MEL-2 melanoma
SW-620 colon = system: SW-620 colon
SK-MEL-28 melanoma = system: SK-MEL-28 melanoma
SK-MEL-5 melanoma = system: SK-MEL-5 melanoma
SR leukemia = system: SR leukemia

SMILES: COc1ccc(-c2nc(N3CCCC3)no2)cc1
- TGI (MCF7 breast): > 100 µM
- TGI (SNB-75 CNS): > 94.8 µM
- TGI (SF-268 CNS): > 100 µM
- TGI (SK-OV-3 ovarian): > 100 µM
- TGI (SF-539 CNS): > 100 µM
- TGI (MOLT-4 leukemia): > 100 µM
- TGI (T-47D breast): > 100 µM
- TGI (CAKI-1 renal): > 100 µM
- TGI (A549 NSCLC): > 100 µM
- TGI (NCI-H226 lung): > 100 µM
- TGI (KM12 colon): > 100 µM
- TGI (NCI-H522 lung): > 94.6 µM
- TGI (TK-10 renal): > 100 µM
- TGI (MDA-MB-435): > 100 µM
- TGI (CCRF-CEM leukemia): > 71.5 µM
- TGI (U251 CNS): > 100 µM
- TGI (SN12C renal): > 100 µM
- TGI (RXF 393 renal): > 72.4 µM
- TGI (COLO 205 colon): > 100 µM
- TGI (UACC-257 melanoma): > 100 µM
- TGI (HOP-92 NSCLC): > 94 µM
- TGI (MDA-N): > 100 µM
- TGI (MALME-3M melanoma): > 100 µM
- TGI (NCI-H23 lung): > 100 µM
- TGI (IGROV1 ovarian): > 100 µM
- TGI (NCI/ADR-RES ovarian): > 100 µM
- TGI (OVCAR-4 ovarian): > 100 µM
- TGI (HCT-15 colon): > 100 µM
- TGI (SNB-19 CNS): > 100 µM
- TGI (OVCAR-3 ovarian): > 100 µM
- TGI (HL-60(TB) leukemia): > 100 µM
- TGI (HCC-2998 colon): > 100 µM
- TGI (OVCAR-8 ovarian): > 100 µM
- TGI (SF-295 CNS): > 100 µM
- TGI (HT29 colon): > 100 µM
- TGI (HS 578T breast): > 100 µM
- TGI (HCT-116 colon): > 100 µM
- TGI (HOP-62 NSCLC): > 100 µM
- TGI (MDA-MB-231 breast): > 100 µM
- TGI (NCI-H460 lung): > 100 µM
- TGI (M14 melanoma): > 100 µM
- TGI (LOX IMVI melanoma): > 100 µM
- TGI (786-0 renal): > 100 µM
- TGI (ACHN renal): > 75 µM
- TGI (OVCAR-5 ovarian): > 100 µM
- TGI (RPMI-8226 leukemia): > 100 µM
- TGI (A498 renal): > 100 µM
- TGI (DU-145 prostate): > 100 µM
- TGI (K-562 leukemia): > 100 µM
- TGI (BT-549 breast): > 100 µM
- TGI (PC-3 prostate): > 100 µM
- TGI (EKVX NSCLC): > 100 µM
- TGI (UO-31 renal): > 100 µM
- TGI (UACC-62 melanoma): > 100 µM
- TGI (SK-MEL-2 melanoma): > 100 µM
- TGI (SW-620 colon): > 100 µM
- TGI (SK-MEL-28 melanoma): > 100 µM
- TGI (SK-MEL-5 melanoma): > 100 µM

SMILES: O=C1C(Br)=C(C2=CC(=P(c3ccccc3)(c3ccccc3)c3ccccc3)C=C2)C(=O)C(Br)=C1C1=CC(=P(c2ccccc2)(c2ccccc2)c2ccccc2)C=C1
- TGI (MCF7 breast): > 100 µM
- TGI (SNB-75 CNS): > 100 µM
- TGI (SF-268 CNS): > 100 µM
- TGI (SK-OV-3 ovarian): > 100 µM
- TGI (SF-539 CNS): > 100 µM
- TGI (MOLT-4 leukemia): > 100 µM
- TGI (T-47D breast): > 100 µM
- TGI (CAKI-1 renal): > 100 µM
- TGI (A549 NSCLC): > 100 µM
- TGI (SR leukemia): > 100 µM
- TGI (KM12 colon): > 100 µM
- TGI (NCI-H522 lung): 42.9 µM
- TGI (TK-10 renal): > 100 µM
- TGI (CCRF-CEM leukemia): > 100 µM
- TGI (U251 CNS): 30.6 µM
- TGI (SN12C renal): > 100 µM
- TGI (RXF 393 renal): > 100 µM
- TGI (COLO 205 colon): > 100 µM
- TGI (UACC-257 melanoma): 95.1 µM
- TGI (HOP-92 NSCLC): 55.5 µM
- TGI (MDA-N): > 100 µM
- TGI (MALME-3M melanoma): 34.1 µM
- TGI (NCI-H23 lung): > 100 µM
- TGI (IGROV1 ovarian): > 100 µM
- TGI (NCI/ADR-RES ovarian): > 100 µM
- TGI (OVCAR-4 ovarian): > 100 µM
- TGI (SNB-19 CNS): > 100 µM
- TGI (OVCAR-3 ovarian): > 100 µM
- TGI (HL-60(TB) leukemia): > 100 µM
- TGI (OVCAR-8 ovarian): > 100 µM
- TGI (SF-295 CNS): > 100 µM
- TGI (HT29 colon): > 100 µM
- TGI (HS 578T breast): > 100 µM
- TGI (HCT-116 colon): > 100 µM
- TGI (HOP-62 NSCLC): > 100 µM
- TGI (MDA-MB-231 breast): > 100 µM
- TGI (M14 melanoma): 25.1 µM
- TGI (LOX IMVI melanoma): > 100 µM
- TGI (786-0 renal): > 100 µM
- TGI (ACHN renal): > 100 µM
- TGI (OVCAR-5 ovarian): 31.7 µM
- TGI (RPMI-8226 leukemia): > 100 µM
- TGI (A498 renal): > 100 µM
- TGI (DU-145 prostate): > 100 µM
- TGI (K-562 leukemia): > 100 µM
- TGI (BT-549 breast): > 100 µM
- TGI (PC-3 prostate): > 100 µM
- TGI (EKVX NSCLC): 34 µM
- TGI (UO-31 renal): > 100 µM
- TGI (UACC-62 melanoma): > 100 µM
- TGI (SK-MEL-2 melanoma): > 100 µM
- TGI (SW-620 colon): 35 µM
- TGI (SK-MEL-28 melanoma): > 100 µM
- TGI (SK-MEL-5 melanoma): > 100 µM

SMILES: COc1ccc2c(c1)N=C(N)n1c(nc3ccccc31)S2
- TGI (MCF7 breast): > 100 µM
- TGI (SNB-75 CNS): > 100 µM
- TGI (SF-268 CNS): > 100 µM
- TGI (SK-OV-3 ovarian): 95.4 µM
- TGI (SF-539 CNS): > 100 µM
- TGI (MOLT-4 leukemia): > 100 µM
- TGI (T-47D breast): 76.7 µM
- TGI (A549 NSCLC): > 100 µM
- TGI (NCI-H226 lung): > 100 µM
- TGI (SR leukemia): > 100 µM
- TGI (KM12 colon): 36.2 µM
- TGI (NCI-H522 lung): 25.9 µM
- TGI (TK-10 renal): > 100 µM
- TGI (U251 CNS): 29.4 µM
- TGI (SN12C renal): > 100 µM
- TGI (RXF 393 renal): 70.5 µM
- TGI (COLO 205 colon): 26.1 µM
- TGI (UACC-257 melanoma): 38.1 µM
- TGI (HOP-92 NSCLC): 53.2 µM
- TGI (MDA-N): 16 µM
- TGI (MALME-3M melanoma): > 100 µM
- TGI (NCI-H23 lung): 26.2 µM
- TGI (IGROV1 ovarian): > 100 µM
- TGI (NCI/ADR-RES ovarian): 86.7 µM
- TGI (OVCAR-4 ovarian): 38.9 µM
- TGI (HCT-15 colon): > 100 µM
- TGI (SNB-19 CNS): > 100 µM
- TGI (OVCAR-3 ovarian): 90.4 µM
- TGI (HL-60(TB) leukemia): > 100 µM
- TGI (HCC-2998 colon): > 100 µM
- TGI (SF-295 CNS): > 100 µM
- TGI (HT29 colon): 15.9 µM
- TGI (HS 578T breast): > 100 µM
- TGI (HCT-116 colon): 15.8 µM
- TGI (HOP-62 NSCLC): > 100 µM
- TGI (MDA-MB-231 breast): 32.3 µM
- TGI (NCI-H460 lung): > 100 µM
- TGI (M14 melanoma): 15.6 µM
- TGI (LOX IMVI melanoma): > 100 µM
- TGI (786-0 renal): 4.39 µM
- TGI (ACHN renal): > 100 µM
- TGI (OVCAR-5 ovarian): 23.9 µM
- TGI (RPMI-8226 leukemia): > 100 µM
- TGI (A498 renal): 80.6 µM
- TGI (DU-145 prostate): > 100 µM
- TGI (K-562 leukemia): > 100 µM
- TGI (BT-549 breast): > 100 µM
- TGI (PC-3 prostate): 69.1 µM
- TGI (UO-31 renal): 38.4 µM
- TGI (UACC-62 melanoma): 76.7 µM
- TGI (SK-MEL-2 melanoma): 28.1 µM
- TGI (SW-620 colon): > 100 µM
- TGI (SK-MEL-28 melanoma): > 100 µM
- TGI (SK-MEL-5 melanoma): 20.8 µM

From PubChem BioAssay (NCI)
